According to patent US20140057915A1, “KINASE INHIBITORS” (TOPIVERT PHARMA LIMITED, priority 2012, published 2014):

Tests used:
[1] = molecular target: cSrc (Homo sapiens, UniProt P12931); test: c-Src enzyme inhibition (FRET); assay type: biochemical; conditions: Table 4a1
Experimental: (§1) The enzyme inhibitory activities of compounds disclosed herein are determined by FRET using synthetic peptides labelled with both donor and acceptor fluorophores (Z-LYTE, Invitrogen Ltd., Paisley, UK).
(§2) The relevant enzyme (3000 ng/mL or 2000 ng/mL respectively, 2.5 μL) is incubated with the test compound (either 4 μg/mL, 0.4 μg/mL, 0.04 μg/mL, or 0.004 μg/mL, 2.5 μL each) for 2 hr at RT. The FRET peptides (8 μM, 2.5 μL), and appropriate ATP solutions (2.5 μL, 800 μM for c-Src, and 60 μM ATP for Syk) are then added to the enzymes/compound mixtures and incubated for 1 hr. Development reagent (protease, 5 μL) is added for 1 hr prior to detection in a fluorescence microplate reader (Varioskan® Flash, ThermoFisher Scientific).
(§3) In all cases, the site-specific protease cleaves non-phosphorylated peptide only and eliminates the FRET signal. Phosphorylation levels of each reaction are calculated using the ratio of coumarin emission (donor) over fluorescein emission (acceptor), for which high ratios indicate high phosphorylation and low ratios indicate low phosphorylation levels.

[2] = molecular target: Syk (Homo sapiens, UniProt P43405); test: Syk enzyme inhibition (FRET); assay type: biochemical; conditions: Table 4a1
Experimental: as §1, §2, §3

[3] = molecular target: GSK3α (Homo sapiens, UniProt P49840); test: GSK 3α enzyme inhibition (FRET), Method 1; assay type: biochemical; conditions: Table 4a1
Experimental: as §1
The following two assay variants are used for determination of GSK 3a inhibition.
The inhibitory activities of compounds of the invention against the GSK 3a enzyme isoform (Invitrogen), are evaluated by determining the level of activation/phosphorylation of the target peptide. The GSK3-α protein (500 ng/mL, 2.5 μL) is mixed with the test compound (2.5 μL at either 4 μg/mL, 0.4 μg/mL, 0.04 μg/mL, or 0.004 μg/mL) for 2 hr at RT. The FRET peptide (8 μM, 2.5 μL), which is a phosphorylation target for GSK3α, and ATP (40 μM, 2.5 μL) are then added to the enzyme/compound mixture and the resulting mixture incubated for 1 hr. Development reagent (protease, 5 μL) is added for 1 hr prior to detection in a fluorescence microplate reader (Varioskan® Flash, ThermoFisher Scientific).
as §3

[4] = system: IL-8 release, d-U937 cells; test: LPS-induced IL-8 release in d-U937 cells; assay type: cell-based; conditions: Homo sapiens, dU937; Table 4c1; read-out: LPS Induced Release of Cytokine in d-U937 Cells, IL-8 IC50
Experimental: (§4) (a) LPS-Induced TNFα/IL-8 Release in d-U937Cells
U937 cells, a human monocytic cell line, are differentiated into macrophage-type cells by incubation with PMA (100 ng/mL) for 48 to 72 hr. Cells are pre-incubated with final concentrations of test compound for 2 hr and are then stimulated with LPS (0.1 μg/mL; from E. Coli: 0111:B4, Sigma) for 4 hr. […] The relative 50% effective concentration (REC50) is determined from the resultant concentration-response curve.

[5] = system: d-U937 cells; test: Cell viability: MTT assay; assay type: cell-based, human; conditions: 1 μg/mL
Experimental: (l) The Effect of Test Compounds on Cell Viability: MTT Assay
Differentiated U937 cells are pre-incubated with each test compound (final concentration 1 μg/mL or 10 μg/mL in 200 μL media indicated below) under two protocols: the first for 4 hr in 5% FCS RPMI1640 media and the second in 10% FCS RPMI1640 media for 24 h. The supernatant is replaced with new media (200 μL) and MTT stock solution (10 μL, 5 mg/mL) is added to each well. After incubation for 1 hr the media are removed, DMSO (200 μL) is added to each well and the plates are shaken lightly for 1 hr prior to reading the absorbance at 550 nm. The percentage loss of cell viability is calculated for each well relative to vehicle (0.5% DMSO) treatment. Consequently an apparent increase in cell viability for drug treatment relative to vehicle is tabulated as a negative percentage.

[6] = system: TNFα release, d-U937 cells; test: LPS-induced TNFα release in d-U937 cells; assay type: cell-based; conditions: Homo sapiens, dU937; relative to 10 μg/mL BIRB796; Table 4c1; read-out: LPS Induced Release of Cytokine in d-U937 Cells, TNFα REC50
Experimental: as §4
U937 cells, a human monocytic cell line, are differentiated into macrophage-type cells by incubation with PMA (100 ng/mL) for 48 to 72 hr. Cells are pre-incubated with final concentrations of test compound for 2 hr and are then stimulated with LPS (0.1 μg/mL; from E. Coli: 0111:B4, Sigma) for 4 hr. The supernatant is collected for determination of TNFα and IL-8 concentrations by sandwich ELISA (Duo-set, R&D systems). […] The relative 50% effective concentration (REC50) is determined from the resultant concentration-response curve. The inhibition of IL-8 production is calculated at each concentration of test compound by comparison with vehicle control.

[7] = system: ICAM-1 expression, BEAS2B cells; test: Poly I:C-induced ICAM-1 expression in BEAS2B cells; assay type: cell-based; conditions: Homo sapiens, BEAS-2B; read-out: Poly IC induced ICAM1 in BEAS2B, IC50
Experimental: (f) Poly I:C-Induced ICAM-1 Expression in BEAS2B Cells
Poly I:C is used in these studies as a simple, RNA virus mimic. Poly I:C-Oligofectamine mixture (1 μg/mL Poly I:C, ±2% Oligofectamine, 25 μL; Invivogen Ltd., San Diego, Calif., and Invitrogen, Carlsbad, Calif., respectively) is transfected into BEAS2B cells (human bronchial epithelial cells, ATCC). Cells are pre-incubated with final concentrations of test compounds for 2 hr and the level of ICAM1 expression on the cell surface is determined by cell-based ELISA. At a time point 18 hr after poly I:C transfection, cells are fixed with 4% formaldehyde in PBS (100 μL) and then endogenous peroxidase is quenched by the addition of washing buffer (100 μL, 0.05% Tween in PBS: PBS-Tween) containing 0.1% sodium azide and 1% hydrogen peroxide. Cells are washed with wash-buffer (3×200 μL). and after blocking the wells with 5% milk in PBS-Tween (100 μL) for 1 hr, the cells are incubated with anti-human ICAM-1 antibody (50 μL; Cell Signalling Technology, Danvers, Mass.) in 1% BSA PBS overnight at 4° C.
The cells are washed with PBS-Tween (3×200 μL) and incubated with the secondary antibody (100 μL; HRP-conjugated anti-rabbit IgG, Dako Ltd., Glostrup, Denmark). […] The ICAM-1 signal is detected by reading the absorbance at 450 nm against a reference wavelength of 655 nm using a spectrophotometer. The cells are then washed with PBS-Tween (3×200 μL) and total cell numbers in each well are determined by reading absorbance at 595 nm after Crystal Violet staining (50 μL of a 2% solution in PBS) and elution by 1% SDS solution (100 μL) in distilled water. The measured OD 450-655 readings are corrected for cell number by dividing with the OD595 reading in each well. The inhibition of ICAM-1 expression is calculated at each concentration of test compound by comparison with vehicle control.

Sequence of GSK3α (P49840 whole entry): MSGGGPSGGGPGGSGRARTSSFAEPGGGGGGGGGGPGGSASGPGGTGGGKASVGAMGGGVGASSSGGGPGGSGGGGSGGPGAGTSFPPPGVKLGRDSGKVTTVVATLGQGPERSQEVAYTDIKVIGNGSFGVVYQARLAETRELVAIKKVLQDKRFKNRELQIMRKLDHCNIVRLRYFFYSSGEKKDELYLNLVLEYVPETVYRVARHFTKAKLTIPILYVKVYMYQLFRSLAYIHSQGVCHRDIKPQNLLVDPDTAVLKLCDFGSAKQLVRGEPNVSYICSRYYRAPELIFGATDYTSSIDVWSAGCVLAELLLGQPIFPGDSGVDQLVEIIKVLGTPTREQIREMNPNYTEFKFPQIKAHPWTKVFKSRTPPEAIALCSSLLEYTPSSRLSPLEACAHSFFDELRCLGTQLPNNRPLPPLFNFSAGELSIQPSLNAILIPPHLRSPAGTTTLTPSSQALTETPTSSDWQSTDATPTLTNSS
Sequence of cSrc (P12931 whole entry): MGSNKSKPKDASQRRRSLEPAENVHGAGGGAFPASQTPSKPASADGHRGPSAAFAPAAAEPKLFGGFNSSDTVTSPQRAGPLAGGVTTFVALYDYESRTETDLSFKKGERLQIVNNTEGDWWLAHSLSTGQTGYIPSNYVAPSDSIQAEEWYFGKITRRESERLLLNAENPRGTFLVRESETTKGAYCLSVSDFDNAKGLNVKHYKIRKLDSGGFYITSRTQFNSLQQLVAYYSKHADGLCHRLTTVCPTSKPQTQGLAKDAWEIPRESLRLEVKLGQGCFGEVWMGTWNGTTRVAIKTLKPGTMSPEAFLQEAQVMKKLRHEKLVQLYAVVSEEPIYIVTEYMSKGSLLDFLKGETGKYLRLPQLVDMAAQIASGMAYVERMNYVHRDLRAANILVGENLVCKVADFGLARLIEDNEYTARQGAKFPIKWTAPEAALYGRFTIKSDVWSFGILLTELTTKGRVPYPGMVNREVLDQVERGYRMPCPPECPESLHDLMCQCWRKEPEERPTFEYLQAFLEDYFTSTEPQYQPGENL

| SMILES | IC50 [1] | IC50 [2] | IC50 [3] | IC50 [4] | Cell viability at time point in d-U937 cells, 4 h [5] | Cell viability at time point in d-U937 cells, 24 h [5] | EC50 [6] | IC50 [7] |
| --- | --- | --- | --- | --- | --- | --- | --- | --- |
| C=C(C)c1cc(NC(=O)Nc2ccc(Oc3ccnc(Nc4cc(OC)cc(C(=O)NCCN5CCOCC5)c4)n3)c3ccccc23)n(-c2ccc(OC)cc2)n1 [Example 86, 3-Methoxy-5-((4-((4-(3-(1-(4-methoxyphenyl)-3-(prop-1-en-2-yl)-1H-pyrazol-5-yl)ureido)naphthalen-1-yl)oxy)pyrimidin-2-yl)amino)-N-(2-morpholinoethyl)-benzamide] | 8 nM | 20 nM | > 13000 nM | 1.5 nM | −ve (−ve and +ve indicate that the value is below and above respectively, the no significant effect threshold, defined as 30% inhibition at 1 μg/mL at the time point indicated) | −ve (−ve and +ve indicate that the value is below and above respectively, the no significant effect threshold, defined as 30% inhibition at 1 μg/mL at the time point indicated) | – | – |
| COc1ccc(-n2nc(C(C)(C)C)cc2NC(=O)Nc2ccc(Oc3ccnc(Nc4cc(OC)cc(C(=O)NCCN5CCOCC5)c4)n3)c3ccccc23)cc1 [Example 54, 3-((4-((4-(3-(3-(tert-butyl)-1-(4-methoxyphenyl)-1H-pyrazol-5-yl)ureido)naphthalen-1-yl)oxy)pyrimidin-2-yl)amino)-5-methoxy-N-(2-morpholinoethyl)benzamide] | – | 5 nM | 217 nM | 0.8 nM | −ve (−ve and +ve indicate that the value is below and above respectively, the no significant effect threshold, defined as 30% inhibition at 1 μg/mL at the time point indicated) | −ve (−ve and +ve indicate that the value is below and above respectively, the no significant effect threshold, defined as 30% inhibition at 1 μg/mL at the time point indicated) | 0.2 nM | – |
| COc1cc(Nc2nccc(Oc3ccc(NC(=O)Nc4cc(C(C)(C)C)nn4-c4ccc(OC)nc4)c4ccccc34)n2)cc(C(=O)NCCN2CCOCC2)c1 [Example 57, 3-((4-((4-(3-(3-(tert-butyl)-1-(6-methoxypyridin-3-yl)-1H-pyrazol-5-yl)ureido)naphthalen-1-yl)oxy)pyrimidin-2-yl)amino)-5-methoxy-N-(2-morpholinoethyl)benzamide] | < 1 nM | – | 283 nM | 1.5 nM | −ve (−ve and +ve indicate that the value is below and above respectively, the no significant effect threshold, defined as 30% inhibition at 1 μg/mL at the time point indicated) | −ve (−ve and +ve indicate that the value is below and above respectively, the no significant effect threshold, defined as 30% inhibition at 1 μg/mL at the time point indicated) | 0.6 nM | 1.9 nM |
| COc1cc(Nc2nccc(Oc3ccc(NC(=O)Nc4cc(C(C)C)nn4-c4ccc(C)cc4)c4ccccc34)n2)cc(C(=O)NCCO)c1 [Example 63, N-(2-hydroxyethyl)-3-((4-((4-(3-(3-isopropyl-1-(p-tolyl)-1H-pyrazol-5-yl)ureido)naphthalen-1-yl)oxy)pyrimidin-2-yl)amino)-5-methoxybenzamide] | 37 nM | 865 nM | – | 1.4 nM | −ve (−ve and +ve indicate that the value is below and above respectively, the no significant effect threshold, defined as 30% inhibition at 1 μg/mL at the time point indicated) | −ve (−ve and +ve indicate that the value is below and above respectively, the no significant effect threshold, defined as 30% inhibition at 1 μg/mL at the time point indicated) | 0.7 nM | 10.1 nM |
| COc1ccc(-n2nc(C(C)C)cc2NC(=O)Nc2ccc(Oc3ccnc(Nc4cccc(C(=O)NCCN5CCOCC5)c4)n3)c3ccccc23)cc1 [Example 20, 3-((4-((4-(3-(3-isopropyl-1-(4-methoxyphenyl)-1H-pyrazol-5-yl)ureido)naphthalen-1-yl)oxy)pyrimidin-2-yl)amino)-N-(2-morpholinoethyl)benzamide] | – | 15 nM | 317 nM | – | −ve (−ve and +ve indicate that the value is below and above respectively, the no significant effect threshold, defined as 30% inhibition at 1 μg/mL at the time point indicated) | −ve (−ve and +ve indicate that the value is below and above respectively, the no significant effect threshold, defined as 30% inhibition at 1 μg/mL at the time point indicated) | 1.4 nM | – |
| COc1ccc(-n2nc(C(C)(C)C)cc2NC(=O)Nc2ccc(Oc3cc(Nc4cc(OC)cc(C(=O)NCCN5CCOCC5)c4)ncn3)c(C)c2C)cc1 [Example 91, 3-((6-(4-(3-(3-(tert-Butyl)-1-(4-methoxyphenyl)-1H-pyrazol-5-yl)ureido)-2,3-dimethylphenoxy)pyrimidin-4-yl)amino)-5-methoxy-N-(2-morpholinoethyl)benzamide] | < 1.3 nM | 131 nM | 3520 nM | – | – | – | – | – |
